Numbers after ± are expanded uncertainties.
assay: activity coefficient (dimensionless); of the first substance listed, at infinite dilution; xn = mol fraction of the nth substance listed; conditions: 298 K; 238 kPa; Liquid; Chromatography; x1 = 0

activity coefficient | SMILES
10.6 ± 0.5 | C=CCCCCC=C [1,7-octadiene] + COCCO
10 ± 0.5 | Cc1ccc(C(C)C)cc1 [1-(1-methylethyl)-4-methylbenzene] + COCCO
11.8 ± 1.1 | c1ccccc1 [benzene] + CC(O)CO
2.4 ± 0.4 | c1ccccc1 [benzene] + COCCO
11.4 ± 0.7 | C1CCCCC1 [cyclohexane] + COCCO
7.4 ± 0.3 | C1=CCCCC1 [cyclohexene] + COCCO
20.1 ± 0.9 | C1CCCCCCC1 [cyclooctane] + COCCO
56.8 ± 2.2 | CCCCCCCCCC [decane] + COCCO
26.2 ± 3.1 | CCc1ccccc1 [ethylbenzene] + CC(O)CO
4.9 ± 0.3 | CCc1ccccc1 [ethylbenzene] + COCCO
8.5 ± 0.5 | Fc1ccccc1 [fluorobenzene] + CC(O)CO
1.8 ± 0.2 | Fc1ccccc1 [fluorobenzene] + COCCO
109 ± 30 | CCCCCCC [heptane] + CC(O)CO
22.4 ± 0.9 | CCCCCCC [heptane] + COCCO
63 ± 20 | CCCCCC [hexane] + CC(O)CO
16.3 ± 0.8 | CCCCCC [hexane] + COCCO
14.7 ± 0.9 | CC1CCCCC1 [methylcyclohexane] + COCCO
11 ± 0.7 | CC1CCCC1 [methylcyclopentane] + COCCO
136 ± 21 | c1ccc2ccccc2c1 [naphthalene] + CC(O)CO
11 ± 2 | c1ccc2ccccc2c1 [naphthalene] + COCCO
41.4 ± 1.7 | CCCCCCCCC [nonane] + COCCO
150 ± 40 | CCCCCCCC [octane] + CC(O)CO
27.9 ± 1 | CCCCCCCC [octane] + COCCO
94.6 ± 3.7 | CCCCCCCCCCC [undecane] + COCCO

SMILES | activity coefficient
Cc1ccccc1C [1,2-dimethylbenzene] + CC(O)CO | 26.3 ± 3.1
Cc1ccccc1C [1,2-dimethylbenzene] + COCCO | 5 ± 0.3
Cc1cccc(C)c1 [1,3-dimethylbenzene] + CC(O)CO | 28.4 ± 2.2
Cc1cccc(C)c1 [1,3-dimethylbenzene] + COCCO | 5.2 ± 0.3
Cc1ccc(C)cc1 [1,4-dimethylbenzene] + CC(O)CO | 26.7 ± 3.1
Cc1ccc(C)cc1 [1,4-dimethylbenzene] + COCCO | 5.2 ± 0.3
C=CC1CC=CCC1 (stereo unspecified) [4-ethenylcyclohexene] + COCCO | 8.6 ± 0.3
Brc1ccccc1 [bromobenzene] + COCCO | 3.5 ± 0.2
Clc1ccccc1 [chlorobenzene] + CC(O)CO | 13.6 ± 1.1
Clc1ccccc1 [chlorobenzene] + COCCO | 2.9 ± 0.4
Cc1ccccc1 [toluene] + CC(O)CO | 17 ± 2.1
Cc1ccccc1 [toluene] + COCCO | 3.6 ± 0.4

From the NIST ThermoML archive (doi:10.1016/j.jct.2014.06.006)
